According to patent US20230190779A1, “Agent for Improving Symptoms of Menopause” (Kao Corporation, priority 2020, published 2023):

Target: T1, human TRPV4 (Homo sapiens, UniProt Q9HBA0)
T1 construct: expressed in transfected cells; host or cells: HeLa cells (human cervical cancer-derived, ATCC), transient transfection
Experiment: Suppression of TRPV4 activity: intracellular calcium ion influx in human TRPV4 expression HeLa cells stimulated with GSK1016790a
Type: cell-based
Conditions: GSK + solvent = 100%, n = 3, Mean ± SE
Description: Using a primer set consisting of oligonucleotides represented by the base sequences described below which was synthesized with reference to the published human TRPV4 gene sequence using cDNA obtained by reverse transcribing the total RNA extracted from human duodenum-derived cells (Hutu-80 cells, purchased from American Type Culture Collection) as a template, the polymerase chain reaction (PCR) was carried out under the following conditions.
The obtained PCR product was purified using a High Pure PCR Product Purification Kit (manufactured by Roche). Using the purified PCR product and pcDNA3.1 Directional TOPO Expression Kit (manufactured by Invitrogen), a human TRPV4 gene expression vector was produced.
A human cervical cancer-derived cell line (HeLa cells, purchased from American Type Culture Collection) was cultured using a DMEM/F12 medium containing 10% fetal bovine serum (manufactured by Invitrogen). HeLa cells were seeded in a 10 cm cell culture dish at 2×10^5 cells/dish. After culturing for 2 days, the cells were transfected with the human TRPV4 gene expression vector (7.7 lag) produced in the above (1) using TransIT-HeLaMONSTER Transfection Kit (manufactured by Mirus) and cultured for 1 day.
The cells were detached using Detachin (manufactured. by Genlantis Inc.), seeded in a DMEM/F12 medium containing 10% fetal bovine serum on a 96 well Optical bottom plate (manufactured by Nunc A/S) at a cell density of 2.0×10^4 cells/90 μL/well, and further cultured for 1 day.
Measurement of the intracellular calcium ion influx activity was carried out using Calcium Kit II-fluo 4 (trade name, DOJTNDO). 90 μL/well of a loading buffer containing Fluo4-AM was added to the human TRPV4 expression cells produced in the above (2), and incubated at 37° C. for 1 hour. Thereafter, the fluorescence intensity (excitation wavelength: 488 nm, fluorescence wavelength: 524 nm) was measured at 37° C. every two seconds using a fluorescence plate reader (FDSS/μCFLL Functional Drug Screening System C13299, manufactured by Hamamatsu Photonics K. K.). After 30 seconds from the start of the measurement, each of GSK1016790a (manufactured by Sigma) which is the TRPV4 agonist, and the cassis extract, or D3R, C3R, D3G, or C3G prepared in the above Production Example as the sample was diluted with a dilution buffer of the measurement kit, 20 μL/well of a mixed solution thereof (mixed immediately before addition) was added, and the change of fluorescence intensity was measured every two seconds until 300 seconds. […]
The TRPV4 activity of the sample was calculated by the following equation assuming that the calcium ion influx rate by the treatment of GSK1016790a which is the TRPV4 agonist was 100%. […]

T1 sequence (Q9HBA0 whole entry): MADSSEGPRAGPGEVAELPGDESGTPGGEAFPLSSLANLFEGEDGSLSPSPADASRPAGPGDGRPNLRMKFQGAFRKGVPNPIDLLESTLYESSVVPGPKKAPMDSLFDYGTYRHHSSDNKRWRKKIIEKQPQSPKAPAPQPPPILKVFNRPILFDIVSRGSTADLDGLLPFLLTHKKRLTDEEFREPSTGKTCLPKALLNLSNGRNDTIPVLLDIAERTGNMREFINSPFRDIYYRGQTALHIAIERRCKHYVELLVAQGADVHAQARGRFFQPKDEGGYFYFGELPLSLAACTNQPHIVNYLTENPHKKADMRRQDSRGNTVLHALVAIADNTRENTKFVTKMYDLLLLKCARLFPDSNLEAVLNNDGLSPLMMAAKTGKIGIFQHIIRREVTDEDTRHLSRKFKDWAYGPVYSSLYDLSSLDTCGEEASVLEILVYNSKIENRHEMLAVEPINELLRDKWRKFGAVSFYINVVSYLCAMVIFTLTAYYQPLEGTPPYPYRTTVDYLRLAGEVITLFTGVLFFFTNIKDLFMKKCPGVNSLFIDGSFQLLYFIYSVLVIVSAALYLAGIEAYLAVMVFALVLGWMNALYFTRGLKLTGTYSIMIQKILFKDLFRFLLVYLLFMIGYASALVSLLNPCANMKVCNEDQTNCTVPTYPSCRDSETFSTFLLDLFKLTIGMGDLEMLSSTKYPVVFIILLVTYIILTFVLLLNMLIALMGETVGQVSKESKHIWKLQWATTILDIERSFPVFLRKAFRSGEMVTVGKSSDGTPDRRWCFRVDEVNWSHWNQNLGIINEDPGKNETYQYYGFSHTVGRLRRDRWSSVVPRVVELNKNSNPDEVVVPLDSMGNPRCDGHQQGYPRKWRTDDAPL

| Intracellular Ca^2+ increase rate (%) (sample 0.05 μg/mL + GSK 10 nM) | Intracellular Ca^2+ increase rate (%) (sample 0.5 μg/mL + GSK 10 nM) | SMILES | Intracellular Ca^2+ increase rate (%) (sample 0.14 μg/mL + GSK 10 nM) | Intracellular Ca^2+ increase rate (%) (sample 1.4 μg/mL + GSK 10 nM) |
| --- | --- | --- | --- | --- |
| 94.4 ± 3.1% | 101.5 ± 4.1% | OC[C@H]1O[C@@H](Oc2cc3c(O)cc(O)cc3[o+]c2-c2ccc(O)c(O)c2)[C@H](O)[C@@H](O)[C@@H]1O [C3G, cyanidin-3-glucoside, reference compound] |  |  |
|  |  | OC[C@H]1O[C@@H](Oc2cc3c(O)cc(O)cc3[o+]c2-c2cc(O)c(O)c(O)c2)[C@H](O)[C@@H](O)[C@@H]1O [D3G, delphinidin-3-glucoside, reference compound] | 101.4 ± 2.7% | 100.4 ± 3.2% |
